This passage reports IC50 results from PubChem BioAssay AID1159562 (GlaxoSmithKline (GSK), 2015).

Active and inactive are the calls of the source. How the calls were made is not given here.

This experiment relates to Trypanosoma brucei growth inhibition, luminescence. The experiment can be described thus: antitrypanosomal activity against T. brucei – luminescence (AID 1159562).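 Further: parasites grew with compound for 24 h before the luminescence read.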
For orientation: IC50 means the concentration needed to halve the response being measured. On to `CC(C)c1sc(Cl)nc1C(=O)NCCc1nc(C(=O)Nc2ccc3c(c2)OCO3)cs1`, for which the IC50 was 25 µM.
Next, `Cn1c(CC(=O)NNC(=O)c2ccc3ccccc3n2)nc2ccccc21`: 6.3 µM; `CCOc1ccc(OCC(=O)N2c3ccccc3CC2C(=O)NC)cc1` (centres undefined): 0.79 µM.
Then `COc1ccc(C(=O)[C@H]2C[C@@H]2CN(Cc2ccccn2)Cc2ccccn2)cc1`, with 16 µM; and `Cc1cc2nc(N3CC[C@H]3C(N)=O)nc(Nc3cc(C4CC4)[nH]n3)c2s1`, with 0.13 µM; and `Cc1nn2c(NCCCO)c3c(nc2c1-c1cccs1)CCC3`, with 0.4 µM.
Next, `CCn1c(NC(=O)Cc2ccc(F)cc2)nc2ccccc21`: 5 µM; `COc1ccc(CN2C(=O)C(O)(CC(=O)c3ccncc3)c3cc(Br)ccc32)cc1OC` (centres undefined): 0.63 µM.
Regarding `CCCNC(=O)Nc1cccc(-c2nc3ncccc3o2)c1`, the concentration for half-maximal inhibition (IC50) is 1 µM.
With `CN1C(=O)c2ccccc2Sc2ccc(NC(=O)NCc3ccco3)cc21`, the IC50 is 0.5 µM.
On to `O=C(NNC(=O)c1ccccn1)c1ccc(-c2ccccc2)cc1`, for which the IC50 is 0.63 µM.
Then `Cc1nn(-c2nc(N)nc(-c3ccccn3)n2)c(C)c1Cc1ccccc1`, with 6.3 µM; and `CN(Cc1ccccc1)Cc1nnnn1C1CCN(Cc2ccc(-n3ccnc3)cc2)CC1`, with > 40 µM (inactive); and `CC(=O)Nc1ccc(-c2cnc(N)c(-c3nc4ccc(F)cc4[nH]3)c2)cc1`, with 2 µM.
Next, `O=C(NCCNc1noc(-c2ccc([N+](=O)[O-])cc2)n1)c1ccc(Cl)cc1`: > 40 µM (inactive); `Cc1cccnc1NC(=O)c1cccc(OCc2c(C)noc2C)c1`: 0.79 µM; `CC(C)(C)c1csc(NC(=O)c2ccc([N+](=O)[O-])s2)n1`: 1.6 µM.
Turning to `COc1cccc(CCNC(=O)C(c2cn[nH]c2)N2CCN(c3ccc(Cl)cc3)CC2)c1` (centres undefined), the IC50 was 32 µM.
Next, `Cc1cc(Nc2cc(C3CC3)[nH]n2)nc(N2CCCC2)n1`: 0.063 µM; `CC(C)CC(=O)Nc1cc(C2CC2)nn1-c1nc2c(c(=O)[nH]1)CCCC2`: 0.2 µM.
Take `Cc1cc(NC(=O)CC2CCCCC2)n(-c2nc3c(c(=O)[nH]2)CCC3)n1`: the IC50 is 0.16 µM.
Then `Clc1ccc(C(CC2CCCCO2)Cn2cncn2)c(Cl)c1` (centres undefined), with > 40 µM (inactive); and `Cc1cnc(Nc2cc(Cc3ccccc3)nc(NC3CCC(O)CC3)n2)s1` (centres undefined), with 0.04 µM; and `CC(=O)NC1(c2ccccc2)CCN(CC(=O)Nc2ccccc2-c2ccccc2)CC1`, with 0.5 µM.
Next, `COc1ccccc1CNc1cc(C2CC2)nc(-c2nccn2C)n1`: 2 µM; `Cn1ccnc1-c1nc(NCc2ccccc2Cl)cc(C2CC2)n1`: 1.6 µM.
Next, `NCC(Cc1ccccc1)NC(=O)c1cnc(-c2c[nH]c3ncccc23)s1` (centres undefined): 1 µM; `CC(c1ccc2c(c1)CCCC2)N(C)c1ncc2c(N)nc(N)nc2n1` (centres undefined): 13 µM; `CC(CNS(=O)(=O)c1ccc(OC(F)F)cc1)c1ccc(NC(=O)c2ccncc2)cc1` (centres undefined): 20 µM.
As to `COc1ccc2ncc(=O)n(CCN3CCOC(CNCc4ccc(C(F)(F)F)cc4F)C3)c2n1` (centres undefined), the IC50 is 2.5 µM.
Next, `COc1ccc(C(=O)Nc2c(C)nn(COc3cccc(C(F)(F)F)c3)c2C)cc1`: 0.79 µM; `O=C1CN(Cc2ccco2)C2CS(=O)(=O)CC2N1c1ccc(Cl)cc1` (centres undefined): 0.25 µM; `Cc1cc(NC(=O)C2CCCCC2)n(-c2nc3c(c(=O)[nH]2)CCC3)n1`: 0.16 µM.
For `Cc1cc(C)n(-c2nc(NC(C)(C)C)nc(N3CCOCC3)n2)n1`, the IC50 was 4 µM.
Then `Cc1ccc(Nc2nc(-c3ccccn3)cc(N3CCCC(O)C3)n2)cc1` (centres undefined), with 3.2 µM; and `N#Cc1cccc(CN2CCC(N(Cc3cccnc3)C(=O)c3cc(F)c(F)cc3F)CC2)c1`, with > 40 µM (inactive); and `Cc1nc(-c2ccncc2)ncc1C(C)NC(=O)c1ccc(Cl)s1` (centres undefined), with 1 µM.
Next, `COc1ccc2ncc(F)c(CCN3CC[C@@H](NC(=O)c4cc5c(s4)CCC5)[C@@H](O)C3)c2n1`: 0.32 µM; `Cc1nc(N2CCC(C(=O)N3CCC(O)(c4cccnc4)CC3)CC2)nc2ccc(C(C)C)cc12`: 32 µM; `O=C(CN(Cc1ccccn1)Cc1ccccn1)NCc1ccc2c(c1)OCO2`: 20 µM.
For `CCOc1cnn(C)c(=O)c1Nc1ccc(C(=O)NCc2ccc(F)cc2)cc1`, the IC50 was > 40 µM (inactive).
Then `Cc1ccc(S(C)(=O)=O)cc1Nc1nccc(-c2sc(N)nc2-c2ccccc2)n1`, with 1.6 µM; and `COc1ccc(C(=O)Nc2ccc(NC(=O)CO)cc2)cc1`, with 0.25 µM; and `c1ccc2[nH]c(-c3ccc(N4CCCC4)nc3)nc2c1`, with 1 µM.
Next, `Cc1ncsc1CNc1cnc(-c2ccc3c(c2)OCCO3)c(-c2cnn(C)c2)c1`: 0.2 µM; `COc1ccc2ncc(F)c(NC(=O)C3(O)CCC(NCc4ccc5c(c4)OCCO5)CC3)c2n1` (centres undefined): 1.6 µM.
Then `Cc1ccccc1CNc1cc(C2CC2)nc(-c2nccn2C)n1`, with 1.6 µM; and `O=C(Nc1cccc(S(=O)(=O)Nc2ccc(Br)cc2)c1)c1ccc([N+](=O)[O-])s1`, with 0.4 µM; and `N#Cc1cc([N+](=O)[O-])ccc1NC1CCCCCC1`, with 3.2 µM.
On to `NS(=O)(=O)c1ccc(Nc2ncc3cccc(OC4CCNCC4)c3n2)cc1`, for which the IC50 is 0.32 µM.
Take `CS(=O)(=O)NC1CCC(Nc2ncc(Br)c(Nc3ccccc3C(N)=O)n2)CC1` (centres undefined): the 50% inhibitory concentration (IC50) is 0.079 µM.
Next, `O=C(c1cccc(Cl)c1Cl)N1CCn2c1nc(-c1ccncc1)cc2=O`: 32 µM; `COc1ccc2ncc(=O)n(CCN3CCC(NCc4ccc(-c5cccs5)cc4)CC3)c2n1`: 6.3 µM; `CC(C)(C)Nc1nc(-c2ccccn2)nc2ccccc12`: 6.3 µM.
As for `Nc1nc(-c2ccccn2)nc(-n2nc(-c3ccccc3)cc2N)n1`, the IC50 is 3.2 µM.
Next, `CC1(Oc2cncc(Cl)c2)CCN(Cc2cc3ccccc3[nH]2)C1` (centres undefined): > 40 µM (inactive); `Cc1cc(-c2cccc3ccccc23)nc2nc(N)nc(N)c12`: 20 µM; `O=C(Nc1cccc(Cl)c1)N1CCCCC1c1cccnc1` (centres undefined): > 40 µM (inactive).
Next, `Cc1cc(NC(=O)C2CC2)ccc1OC1CCN(Cc2ccco2)CC1`: 0.25 µM; `CCN(Cc1nc2ccc(C(=O)N3CCN(c4ncccn4)CC3)cc2[nH]1)C1CCCc2cccnc21` (centres undefined): 5 µM.
Next, `O=C(CCc1ccc(-c2ccccc2)o1)N1CCN(c2ccc(O)cc2)CC1`: 40 µM.
In the case of `Cc1cccc(Nc2nc(-c3ccccn3)cs2)n1`, the IC50 is 0.5 µM.
Next, `CS(=O)(=O)N1CCC(Nc2ncc(Br)c(Nc3cccc(F)c3C(N)=O)n2)CC1`: 0.016 µM; `CC(C)(C)c1cc(NC2CC2)nc(-c2ccccn2)n1`: 2.5 µM; `Cc1ccc(NC(C)C(=O)Nc2ccc(C#N)cc2)cc1S(=O)(=O)N1CCCCC1` (centres undefined): 10 µM.
Then `O=C(N1CCc2ccccc2CC1)C1(C(=O)N2CCC(n3c(=O)[nH]c4ncccc43)CC2)CC1`, with > 40 µM (inactive); and `C[C@@H](Oc1cc(-n2cnc3ccc(C(O)CO)cc32)sc1C(N)=O)c1ccccc1C(F)(F)F` (some centres undefined), with 0.79 µM; and `O=C(Nc1ncc([N+](=O)[O-])s1)C1CC1`, with 40 µM.
Next, `O=C(NCCc1nc(-c2ccc(F)c(F)c2)n[nH]1)C1CCCCC1`: 1 µM; `COc1ccc2nc(N(Cc3cccnc3)C(=O)C3CCC3)sc2c1`: 40 µM; `c1cc(-c2ncc(-c3ccn[nH]3)s2)ccn1`: > 40 µM (inactive).
In the case of `Cc1ccc2c(c1)-c1onc(C(=O)N3CCCCC3c3cccnc3)c1CO2` (centres undefined), the IC50 is > 40 µM (inactive).
Next, `Cc1nn(C)c(Cl)c1CN(Cc1cccnc1)Cc1ccsc1`: > 40 µM (inactive); `Cc1[nH]nc(C(F)(F)F)c1NC(=O)CCn1cc(Cl)c([N+](=O)[O-])n1`: 0.79 µM; `O=C(NCCc1ccccn1)C(c1cn[nH]c1)N1CCN(c2ccc(Cl)c(Cl)c2)CC1` (centres undefined): > 40 µM (inactive).
Then `COc1ccc(-c2cnc(NC(=O)c3cc(-c4ccccn4)n[nH]3)n2C)cc1`, with 10 µM; and `CC1=C(C(=O)Nc2ccc(Cl)cc2)C(c2ccncc2)n2ncc(C(=O)Nc3ccccc3)c2N1` (centres undefined), with > 40 µM (inactive).
Next, `COc1ccc(S(=O)(=O)Nc2ccc(C(=O)Nc3nc(-c4ccccn4)cs3)cc2)cc1`: 0.63 µM; `O=C(c1cccc(Nc2ncc(-c3ccc4c(c3)OCO4)cn2)c1)N1CCSC1`: > 40 µM (inactive); `CCC(c1ccc(F)cc1)n1cncc1-c1cnn(C)c1` (centres undefined): > 40 µM (inactive).
In the case of `COc1cccc(CN(C)Cc2nc(N)c3c(C)c(C)sc3n2)c1`, the IC50 is 4 µM.
Next, `Cc1ccc(S(=O)(=O)Nc2ccc(CN3CCN(C(=O)c4cccc(C#N)c4)CC3)cc2)cc1`: 0.32 µM.
Next, `COc1ccc(Nc2nc(NC3CCC(O)CC3)ncc2Br)c(C(N)=O)c1` (centres undefined): 0.25 µM; `CCCCc1cc(Nc2cc(C3CCC3)[nH]n2)nc(N2CCC2C(N)=O)n1` (centres undefined): 0.16 µM; `NCc1ccc2c(Cl)cc(Cl)c(O)c2n1`: 0.2 µM.
Next, `COc1ccc(Cl)cc1CC(=O)Nc1n[nH]c(-c2ccccn2)n1`: > 40 µM (inactive); `NC(=O)c1ccccc1Nc1nc(NC2CCCCC2)nc2[nH]ccc12`: 10 µM; `O=S1N=C(NCCCN(Cc2ccc(F)cc2)c2ccccn2)C(NCc2ccncc2)=N1` (centres undefined): 0.5 µM.
For the compound `CCn1nccc1CN(C)C(=O)C=Cc1ccc(Cl)cc1`, the IC50 is > 40 µM (inactive).
Then `CCS(=O)(=O)c1cccc(C(=O)Nc2nc(-c3ccccn3)cs2)c1`, with 0.63 µM; and `CC(=O)Nc1ccc(Nc2nccc(-c3cnn4ncccc34)n2)cc1C(F)(F)F`, with 0.05 µM.
Next, `O=C1CSC(c2cccnc2)N1c1ccc(Cl)cc1Cl` (centres undefined): > 40 µM (inactive).
Then `Cc1cc(Br)sc1CNCCCNc1cc(=O)c2ccccc2[nH]1`, with 0.1 µM; and `CC(=O)Nc1ccc(-c2csc(NC(=O)c3ccc([N+](=O)[O-])s3)n2)cc1`, with 0.16 µM.
